Experiments:
[1] = target: T1, Protein kinase C beta type (Homo sapiens, UniProt P05771); experiment: Inhibitory concentration against recombinant human Protein kinase C beta 1 isozyme
[2] = target: Protein kinase C delta type (Homo sapiens, UniProt Q05655); experiment: Inhibitory concentration against recombinant human Protein kinase C delta isozyme
[3] = target: Protein kinase C gamma type (Homo sapiens, UniProt P05129); experiment: Inhibitory concentration against recombinant human Protein kinase C gamma isozyme
[4] = target: T1, Protein kinase C beta type; experiment: Inhibitory concentration against recombinant human Protein kinase C beta 2 isozyme
[5] = target: Protein kinase C alpha type (Homo sapiens, UniProt P17252); experiment: Inhibitory concentration against recombinant human Protein kinase C alpha isozyme
[6] = target: T2, Protein kinase C epsilon type (Homo sapiens, UniProt Q02156); experiment: Inhibitory concentration against recombinant human Protein kinase C epsilon isozyme
T2 sequence (Q02156 whole entry): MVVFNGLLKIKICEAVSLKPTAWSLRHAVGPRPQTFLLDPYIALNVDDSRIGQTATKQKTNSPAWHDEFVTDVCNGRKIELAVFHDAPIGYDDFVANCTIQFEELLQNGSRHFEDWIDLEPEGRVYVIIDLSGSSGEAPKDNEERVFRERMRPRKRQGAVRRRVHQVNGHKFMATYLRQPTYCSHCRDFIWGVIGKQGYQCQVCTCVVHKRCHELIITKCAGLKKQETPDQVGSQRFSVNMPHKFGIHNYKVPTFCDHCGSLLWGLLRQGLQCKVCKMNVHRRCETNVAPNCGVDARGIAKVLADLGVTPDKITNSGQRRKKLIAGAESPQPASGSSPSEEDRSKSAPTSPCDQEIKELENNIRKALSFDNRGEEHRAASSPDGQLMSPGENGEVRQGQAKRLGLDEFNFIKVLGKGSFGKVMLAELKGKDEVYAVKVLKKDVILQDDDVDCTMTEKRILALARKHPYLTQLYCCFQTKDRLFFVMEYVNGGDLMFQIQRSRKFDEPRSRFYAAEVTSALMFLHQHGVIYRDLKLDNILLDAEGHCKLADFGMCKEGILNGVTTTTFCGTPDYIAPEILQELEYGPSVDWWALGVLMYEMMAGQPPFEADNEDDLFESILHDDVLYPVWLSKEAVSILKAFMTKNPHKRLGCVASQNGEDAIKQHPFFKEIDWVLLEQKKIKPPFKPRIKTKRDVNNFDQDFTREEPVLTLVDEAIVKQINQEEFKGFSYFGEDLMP

[7] = target: Protein kinase C eta type (Homo sapiens, UniProt P24723); experiment: Inhibitory concentration against recombinant human Protein kinase C eta isozyme
[8] = target: cAMP-dependent protein kinase catalytic subunit alpha (Homo sapiens, UniProt P17612); experiment: Inhibitory concentration against recombinant human cAMP-dependent Protein kinase A
[9] = target: T3, Protein kinase C zeta type (Homo sapiens, UniProt Q05513); experiment: Inhibitory concentration against recombinant human Protein kinase C zeta isozyme
T3 sequence (Q05513 whole entry): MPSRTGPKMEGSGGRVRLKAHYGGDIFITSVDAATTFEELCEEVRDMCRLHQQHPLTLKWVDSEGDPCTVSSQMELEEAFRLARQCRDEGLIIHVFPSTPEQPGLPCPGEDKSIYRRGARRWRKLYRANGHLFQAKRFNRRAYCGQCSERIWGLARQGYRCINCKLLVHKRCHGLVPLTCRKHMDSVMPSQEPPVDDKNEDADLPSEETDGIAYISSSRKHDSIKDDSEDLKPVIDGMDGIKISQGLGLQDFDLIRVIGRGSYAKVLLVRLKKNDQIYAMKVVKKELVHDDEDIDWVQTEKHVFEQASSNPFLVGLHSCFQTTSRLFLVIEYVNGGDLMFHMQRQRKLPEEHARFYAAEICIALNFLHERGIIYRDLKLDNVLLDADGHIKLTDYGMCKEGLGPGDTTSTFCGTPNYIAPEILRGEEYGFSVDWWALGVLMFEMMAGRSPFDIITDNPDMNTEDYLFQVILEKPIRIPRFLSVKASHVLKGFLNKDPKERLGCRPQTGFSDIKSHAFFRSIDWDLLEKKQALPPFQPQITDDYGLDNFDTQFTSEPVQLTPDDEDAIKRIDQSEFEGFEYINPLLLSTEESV

Protein kinase C delta type, sequence (Q05655 whole entry): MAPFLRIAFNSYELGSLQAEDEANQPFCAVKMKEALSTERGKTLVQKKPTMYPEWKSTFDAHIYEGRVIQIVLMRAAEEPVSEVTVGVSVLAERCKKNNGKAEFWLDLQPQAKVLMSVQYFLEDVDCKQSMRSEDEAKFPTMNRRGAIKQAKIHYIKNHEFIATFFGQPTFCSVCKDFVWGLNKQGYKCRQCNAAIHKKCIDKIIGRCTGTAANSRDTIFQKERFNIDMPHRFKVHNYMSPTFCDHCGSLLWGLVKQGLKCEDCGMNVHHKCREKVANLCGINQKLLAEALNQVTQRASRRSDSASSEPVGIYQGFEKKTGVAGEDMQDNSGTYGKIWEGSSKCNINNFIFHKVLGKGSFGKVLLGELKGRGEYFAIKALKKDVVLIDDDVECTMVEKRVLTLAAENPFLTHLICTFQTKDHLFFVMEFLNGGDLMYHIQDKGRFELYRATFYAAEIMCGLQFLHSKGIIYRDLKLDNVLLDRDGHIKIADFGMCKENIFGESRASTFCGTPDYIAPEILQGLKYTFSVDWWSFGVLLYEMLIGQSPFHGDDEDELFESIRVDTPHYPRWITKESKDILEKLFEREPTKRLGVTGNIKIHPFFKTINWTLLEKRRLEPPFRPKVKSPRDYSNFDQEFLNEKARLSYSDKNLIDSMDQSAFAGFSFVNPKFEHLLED
Protein kinase C eta type, sequence (P24723 whole entry): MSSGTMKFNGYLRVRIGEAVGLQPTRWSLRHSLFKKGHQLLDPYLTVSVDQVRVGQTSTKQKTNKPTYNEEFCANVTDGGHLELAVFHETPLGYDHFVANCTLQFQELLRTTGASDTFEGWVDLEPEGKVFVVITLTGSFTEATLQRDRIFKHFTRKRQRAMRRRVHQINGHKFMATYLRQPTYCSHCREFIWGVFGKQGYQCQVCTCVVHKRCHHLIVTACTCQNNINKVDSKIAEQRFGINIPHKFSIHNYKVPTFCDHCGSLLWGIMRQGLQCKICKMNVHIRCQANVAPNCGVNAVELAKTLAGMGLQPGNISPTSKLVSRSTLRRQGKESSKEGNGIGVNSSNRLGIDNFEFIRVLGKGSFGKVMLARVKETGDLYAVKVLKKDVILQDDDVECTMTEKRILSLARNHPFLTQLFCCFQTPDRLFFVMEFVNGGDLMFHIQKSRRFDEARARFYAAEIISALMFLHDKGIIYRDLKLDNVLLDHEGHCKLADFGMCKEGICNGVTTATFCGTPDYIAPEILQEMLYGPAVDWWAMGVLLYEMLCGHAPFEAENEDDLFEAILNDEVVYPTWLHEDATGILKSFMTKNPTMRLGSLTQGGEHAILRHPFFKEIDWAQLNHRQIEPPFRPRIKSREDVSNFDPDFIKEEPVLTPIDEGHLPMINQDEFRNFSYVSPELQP
T1 sequence (P05771 whole entry): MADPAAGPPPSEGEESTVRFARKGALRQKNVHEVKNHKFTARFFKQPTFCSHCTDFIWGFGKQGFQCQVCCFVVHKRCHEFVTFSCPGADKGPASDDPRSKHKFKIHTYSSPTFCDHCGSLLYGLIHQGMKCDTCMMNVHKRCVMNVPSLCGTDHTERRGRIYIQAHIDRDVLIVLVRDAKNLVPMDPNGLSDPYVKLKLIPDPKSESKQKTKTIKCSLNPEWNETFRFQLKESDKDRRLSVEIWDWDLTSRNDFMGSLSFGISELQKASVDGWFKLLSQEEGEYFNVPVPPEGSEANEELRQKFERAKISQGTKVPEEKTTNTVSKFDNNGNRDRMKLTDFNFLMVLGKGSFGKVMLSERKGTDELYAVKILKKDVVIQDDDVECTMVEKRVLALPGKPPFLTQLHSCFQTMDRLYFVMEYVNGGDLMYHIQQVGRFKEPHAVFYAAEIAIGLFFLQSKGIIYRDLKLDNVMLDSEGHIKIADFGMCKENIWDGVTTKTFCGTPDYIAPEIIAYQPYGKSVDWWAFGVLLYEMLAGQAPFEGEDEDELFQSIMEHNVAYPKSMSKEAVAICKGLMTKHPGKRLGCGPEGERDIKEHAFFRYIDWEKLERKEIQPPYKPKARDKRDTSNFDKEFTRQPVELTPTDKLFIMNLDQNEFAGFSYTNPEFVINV

Row | Compound | IC50 [1] [nM] | IC50 [2] [nM] | IC50 [3] [nM] | IC50 [4] [nM] | IC50 [5] [nM] | IC50 [6] [nM] | IC50 [7] [nM] | IC50 [8] [nM] | IC50 [9] [nM]
1 | CNC(=O)N1C[C@@H](NC(=O)c2ccc(O)cc2)[C@H](OC(=O)c2cc(O)c(C(=O)c3c(O)cccc3C(=O)O)c(O)c2)C1 | 680 | 40 | 410 | 1800 | 2200 | 3600 | 130 | 3000 | > 50000
2 | CC1(C)C2CCC1(C)[C@@H](OC(=O)c1cc(O)c(C(=O)c3c(O)cccc3C(=O)O)c(O)c1)[C@@H]2NC(=O)c1ccc(O)cc1 (stereo partly drawn) | 310 | 340 | 210 | 80 | 410 | 3600 | 310 | 26000 | > 50000
3 | O=C(N[C@@H]1CNCCC[C@H]1OC(=O)c1cc(O)c(C(=O)c2c(O)cccc2C(=O)O)c(O)c1)c1ccc(O)cc1 [BALANOL] | – | 4 | 20 | – | – | – | – | – | 7400
4 | O=C(N[C@@H]1CCCCC[C@H]1OC(=O)c1cc(O)c(C(=O)c2c(O)cccc2C(=O)O)c(O)c1)c1ccc(O)cc1 | – | – | – | – | – | – | – | 1400 | –
5 | O=C(N[C@@H]1CNC[C@H]1OC(=O)c1cc(O)c(C(=O)c2c(O)cccc2C(=O)O)c(O)c1)c1ccc(O)cc1 | – | – | – | – | – | – | – | 70 | –
6 | CS(=O)(=O)N1C[C@@H](NC(=O)c2ccc(O)cc2)[C@H](OC(=O)c2cc(O)c(C(=O)c3c(O)cccc3C(=O)O)c(O)c2)C1 | 330 | 35 | 400 | 350 | 910 | 1300 | 62 | 4500 | > 150000
7 | O=C(NC1CNCCCC1OC(=O)c1cc(O)c(C(=O)c2c(O)cccc2C(=O)O)c(O)c1)c1ccc(O)cc1 (racemic) | – | 20 | – | – | 70 | – | – | – | 3500
8 | O=C(N[C@H]1CNCCC[C@@H]1OC(=O)c1cc(O)c(C(=O)c2c(O)cccc2C(=O)O)c(O)c1)c1ccc(O)cc1 | 500 | 420 | 400 | 880 | 3000 | – | 260 | – | > 150000
9 | O=C(N[C@@H]1CS(=O)(=O)CCC[C@H]1OC(=O)c1cc(O)c(C(=O)c2c(O)cccc2C(=O)O)c(O)c1)c1ccc(O)cc1 | 5200 | 4000 | 4300 | 3600 | 9600 | 45000 | 800 | 38000 | > 150000
10 | CC(=O)N1C[C@@H](NC(=O)c2ccc(O)cc2)[C@H](OC(=O)c2cc(O)c(C(=O)c3c(O)cccc3C(=O)O)c(O)c2)C1 | 710 | 60 | 390 | 820 | 1200 | 3700 | 30 | 3600 | > 150000
11 | O=C(N[C@@H]1CN2CCC(CC2)[C@H]1OC(=O)c1cc(O)c(C(=O)c2c(O)cccc2C(=O)O)c(O)c1)c1ccc(O)cc1 | 26 | 110 | 140 | 69 | 410 | 170 | 26 | 1700 | –
12 | CN1C2CCC1C(NC(=O)c1ccc(O)cc1)C(OC(=O)c1cc(O)c(C(=O)c3c(O)cccc3C(=O)O)c(O)c1)C2 (stereo not drawn) | – | – | – | – | – | – | – | > 50000 | –
13 | O=C(N[C@@H]1C2CCC(C2)[C@H]1OC(=O)c1cc(O)c(C(=O)c2c(O)cccc2C(=O)O)c(O)c1)c1ccc(O)cc1 (stereo partly drawn) | 50 | 20 | 40 | 30 | 60 | 30 | 20 | 1900 | –
14 | O=C(N[C@@H]1C2CC(C3CCCC32)[C@H]1OC(=O)c1cc(O)c(C(=O)c2c(O)cccc2C(=O)O)c(O)c1)c1ccc(O)cc1 (stereo partly drawn) | – | – | – | – | – | – | – | 32000 | –
15 | COC(=O)N1C[C@@H](NC(=O)c2ccc(O)cc2)[C@H](OC(=O)c2cc(O)c(C(=O)c3c(O)cccc3C(=O)O)c(O)c2)C1 | 810 | 100 | 540 | 2700 | 540 | 4800 | 90 | 13000 | > 150000
16 | CC(C)N1C[C@@H](NC(=O)c2ccc(O)cc2)[C@H](OC(=O)c2cc(O)c(C(=O)c3c(O)cccc3C(=O)O)c(O)c2)C1 | 60 | 40 | 90 | 70 | 240 | 50 | 4 | < 330 | –

The remaining lines, values ahead:

Row | IC50 [1] [nM] | IC50 [2] [nM] | IC50 [3] [nM] | IC50 [4] [nM] | IC50 [5] [nM] | IC50 [6] [nM] | IC50 [7] [nM] | IC50 [8] [nM] | IC50 [9] [nM] | Compound
17 | 4 | 4 | 5 | 3 | 10 | 160 | 2 | 230 | – | O=C(N[C@@H]1C[C@H](CO)C[C@H]1OC(=O)c1cc(O)c(C(=O)c2c(O)cccc2C(=O)O)c(O)c1)c1ccc(O)cc1
18 | 4 | 5 | 5 | 2 | 20 | 10 | 3 | 50 | 1200 | N[C@@H]1C[C@@H](NC(=O)c2ccc(O)cc2)[C@H](OC(=O)c2cc(O)c(C(=O)c3c(O)cccc3C(=O)O)c(O)c2)C1
19 | 20 | 5 | 20 | 10 | 40 | 100 | 3 | 130 | – | O=C(N[C@@H]1CC(O)C[C@H]1OC(=O)c1cc(O)c(C(=O)c2c(O)cccc2C(=O)O)c(O)c1)c1ccc(O)cc1 (stereo partly drawn)
20 | – | – | – | – | – | – | 90 | 350 | – | O=C(N[C@@H]1CNCC[C@H]1OC(=O)c1cc(O)c(C(=O)c2c(O)cccc2C(=O)O)c(O)c1)c1ccc(O)cc1
21 | 4 | 6 | 5 | 4 | 20 | 30 | 3 | 170 | 2800 | NC[C@H]1C[C@@H](NC(=O)c2ccc(O)cc2)[C@H](OC(=O)c2cc(O)c(C(=O)c3c(O)cccc3C(=O)O)c(O)c2)C1
22 | 30 | 6 | 30 | 20 | 50 | 150 | 4 | 250 | – | O=C(N[C@@H]1C[C@@H](O)C[C@H]1OC(=O)c1cc(O)c(C(=O)c2c(O)cccc2C(=O)O)c(O)c1)c1ccc(O)cc1
23 | 60 | 20 | 50 | 20 | 80 | 270 | 20 | 220 | – | O=C(N[C@@H]1C[C@@H](CO)C[C@H]1OC(=O)c1cc(O)c(C(=O)c2c(O)cccc2C(=O)O)c(O)c1)c1ccc(O)cc1
24 | 2500 | 90 | 1000 | 3300 | 6700 | 16000 | 10 | 450 | > 150000 | O=C(N[C@@H]1COCCC[C@H]1OC(=O)c1cc(O)c(C(=O)c2c(O)cccc2C(=O)O)c(O)c1)c1ccc(O)cc1
25 | 3800 | 90 | 1000 | 2400 | 3300 | 5900 | 100 | 7500 | – | O=C(N[C@@H]1CSCCC[C@H]1OC(=O)c1cc(O)c(C(=O)c2c(O)cccc2C(=O)O)c(O)c1)c1ccc(O)cc1
26 | 5 | 20 | 10 | 5 | 20 | 30 | 3 | 90 | 3100 | NC[C@@H]1C[C@@H](NC(=O)c2ccc(O)cc2)[C@H](OC(=O)c2cc(O)c(C(=O)c3c(O)cccc3C(=O)O)c(O)c2)C1

Source: ChEMBL document CHEMBL1130164 (J Med Chem, 1997)
